# Reference: patent US20050197350A1, “Novel quinoline, tetrahydroquinazoline, and pyrimidine derivatives and methods of treatment related to the use thereof” (TAISHO PHARMACEUTICAL CO., LTD., priority 2003, published 2005)
# Test system: MCH receptors
# Assay: MCH receptor activity class (method not given)
# Conditions: MCH receptor activity class 1-3 (percent of control at 10^-7 M or IC50)
row,SMILES,class
1,COC(=O)c1cccc(NC(=S)N[C@H]2CC[C@@H](Nc3nccc(N(C)C)n3)CC2)c1 [compound 2327],3 (Class 3 The value of percent of control at 10^−7 M was more than 60% or the value of IC50 was more than 200 nM.)
2,C[C@@H](NC(=S)N[C@H]1CC[C@@H](Nc2cc(N(C)C)c3ccccc3n2)CC1)c1ccccc1 [compound 2298],3 (Class 3 The value of percent of control at 10^−7 M was more than 60% or the value of IC50 was more than 200 nM.)
3,Cc1c(Cl)cccc1NC(=O)NC[C@H]1CC[C@@H](Nc2cc(N(C)C)c3ccccc3n2)CC1 [compound 2385],3 (Class 3 The value of percent of control at 10^−7 M was more than 60% or the value of IC50 was more than 200 nM.)
4,CCOc1ccccc1NC(=S)N[C@H]1CC[C@@H](Nc2cc(N(C)C)c3ccccc3n2)CC1 [compound 2302],3 (Class 3 The value of percent of control at 10^−7 M was more than 60% or the value of IC50 was more than 200 nM.)

# Same assay, conditions: MCH receptor; class by percent of control at 10^-7 M or IC50
row,SMILES,class
1,CN(C)c1nc(N[C@H]2CC[C@@H](NC(=S)NCc3ccccc3F)CC2)nc2c1CCCC2 [compound 2037],3 (Class 3 The value of percent of control at 10^−7 M was more than 60% or the value of IC50 was more than 200 nM.)
2,C/C(=C\c1ccccc1)C(=O)NC[C@H]1CC[C@@H](Nc2cc(N(C)C)c3ccccc3n2)CC1 [compound 214],3 (Class 3 The value of percent of control at 10^−7 M was more than 60% or the value of IC50 was more than 200 nM.)
3,CN(C)c1nc(N[C@H]2CC[C@@H](NC(=S)Nc3cccc(I)c3)CC2)nc2c1CCCC2 [compound 1985],3 (Class 3 The value of percent of control at 10^−7 M was more than 60% or the value of IC50 was more than 200 nM.)
4,Cc1ccc(NC(=S)N[C@H]2CC[C@@H](Nc3nc4c(c(N(C)C)n3)CCCC4)CC2)cc1C [compound 2063],3 (Class 3 The value of percent of control at 10^−7 M was more than 60% or the value of IC50 was more than 200 nM.)

# Same assay, conditions: activity class 1-3: percent of control at 10^-7 M or IC50
row,SMILES,class
1,Cc1cccc(C)c1NC(=O)N[C@H]1CC[C@@H](Nc2nc3c(c(N(C)C)n2)CCCC3)CC1 [compound 1660],3 (Class 3 The value of percent of control at 10^−7 M was more than 60% or the value of IC50 was more than 200 nM.)
2,CN(C)c1cc(N[C@H]2CC[C@@H](NC(=O)OCC(Cl)(Cl)Cl)CC2)nc2ccccc12 [compound 1558],3 (Class 3 The value of percent of control at 10^−7 M was more than 60% or the value of IC50 was more than 200 nM.)
3,Cc1cccc(Cl)c1NC(=O)N[C@H]1CC[C@@H](Nc2nc3c(c(N(C)C)n2)CCCC3)CC1 [compound 1674],3 (Class 3 The value of percent of control at 10^−7 M was more than 60% or the value of IC50 was more than 200 nM.)

# Same assay, conditions: activity class per percent of control at 10^-7 M or IC50
row,SMILES,class
1,CN(C)c1nc(N[C@H]2CC[C@@H](NC(=O)C(CC(=O)c3ccc(Br)cc3)c3c[nH]c4ccccc34)CC2)nc2c1CCCC2 (relative stereo) [compound 992],3 (Class 3 The value of percent of control at 10^−7 M was more than 60% or the value of IC50 was more than 200 nM.)
2,CCSC(C(=O)N[C@H]1CC[C@@H](Nc2nc3c(c(N(C)C)n2)CCCC3)CC1)(c1ccccc1)c1ccccc1 [compound 1010],2 (Class 2: The value of percent of control at 10^−7 M was from 40% to 60% or the value of IC′50 was from 50 nM to 200 nM.)
3,CN(C)c1nc(N[C@H]2CC[C@@H](CNC(=O)c3ccc(Br)s3)CC2)nc2c1CCCC2 [compound 1061],3 (Class 3 The value of percent of control at 10^−7 M was more than 60% or the value of IC50 was more than 200 nM.)

# Same assay, conditions: class 1-3 by percent of control at 10^-7 M or IC50
row,SMILES,class
1,COc1cccc(C(=O)NC[C@H]2CC[C@@H](Nc3nc4c(c(N(C)C)n3)CCCC4)CC2)c1 [compound 582],3 (Class 3 The value of percent of control at 10^−7 M was more than 60% or the value of IC50 was more than 200 nM.)
2,CN(C)c1ccnc(N[C@H]2CC[C@@H](CNC(=O)Cc3ccc(F)cc3)CC2)n1 [compound 413],3 (Class 3 The value of percent of control at 10^−7 M was more than 60% or the value of IC50 was more than 200 nM.)
3,CN(C)c1nc(N[C@H]2CC[C@@H](NC(=O)c3ccc([N+](=O)[O-])cc3Cl)CC2)nc2c1CCCC2 [compound 538],3 (Class 3 The value of percent of control at 10^−7 M was more than 60% or the value of IC50 was more than 200 nM.)
4,CN(C)c1ccnc(N[C@H]2CC[C@@H](CNC(=O)c3c(F)ccc(F)c3Cl)CC2)n1 [compound 454],3 (Class 3 The value of percent of control at 10^−7 M was more than 60% or the value of IC50 was more than 200 nM.)
5,COc1ccc(OC)c(CC(=O)N[C@H]2CC[C@@H](Nc3nc4c(c(N(C)C)n3)CCCC4)CC2)c1 [compound 471],3 (Class 3 The value of percent of control at 10^−7 M was more than 60% or the value of IC50 was more than 200 nM.)
6,Cc1cc(C(=O)N[C@H]2CC[C@@H](Nc3nc4c(c(N(C)C)n3)CCCC4)CC2)ccc1F [compound 517],1 (Class 1: The value of percent of control at 10^−7 M was less than 40% or the value of IC50 was less than 50 nM.)
7,"CN(C)c1nc(N[C@H]2CC[C@@H](NC(=O)c3ccccc3)CC2)nc2c1CCCC2 [compound 529, N-(cis-4-{[4-(dimethylamino)-5,6,7,8-tetrahydroquinazolin-2-yl]amino}cyclohexyl)benzamide]",2 (Class 2: The value of percent of control at 10^−7 M was from 40% to 60% or the value of IC′50 was from 50 nM to 200 nM.)

# Same assay, conditions: class by percent of control at 10^-7 M or IC50
row,SMILES,class
1,C/C(=C\c1ccccc1)C(=O)NC[C@H]1CC[C@@H](Nc2nc3c(c(N(C)C)n2)CCCC3)CC1 [compound 649],3 (Class 3 The value of percent of control at 10^−7 M was more than 60% or the value of IC50 was more than 200 nM.)
2,Cc1cccc(C(C)C)c1NC(=O)N[C@H]1CC[C@@H](Nc2nccc(N(C)C)n2)CC1 [compound 2199],3 (Class 3 The value of percent of control at 10^−7 M was more than 60% or the value of IC50 was more than 200 nM.)
3,CN(C)c1cc(N[C@H]2CC[C@@H](NC(=O)Cc3ccc(Cl)c(Cl)c3)CC2)nc2ccccc12 [compound 699],3 (Class 3 The value of percent of control at 10^−7 M was more than 60% or the value of IC50 was more than 200 nM.)
4,"CN(C)c1cc(N[C@H]2CC[C@@H](NC(=O)NC(c3ccccc3)c3ccccc3)CC2)nc2ccccc12 [compound 2119, N-(cis-4-{[4-(dimethylamino)quinolin-2-yl]amino}cyclohexyl)-N′-(diphenylmethyl)urea]",2 (Class 2: The value of percent of control at 10^−7 M was from 40% to 60% or the value of IC′50 was from 50 nM to 200 nM.)
5,C[C@@H](CNC[C@H]1CC[C@@H](Nc2cc(N(C)C)c3ccccc3n2)CC1)N(Cc1ccccc1)Cc1ccccc1 [compound 1477],3 (Class 3 The value of percent of control at 10^−7 M was more than 60% or the value of IC50 was more than 200 nM.)
6,CN(C)c1ccnc(N[C@H]2CC[C@@H](NC(=O)c3cc(F)c(F)c(F)c3F)CC2)n1 [compound 346],3 (Class 3 The value of percent of control at 10^−7 M was more than 60% or the value of IC50 was more than 200 nM.)
7,CN(C)c1ccnc(N[C@H]2CC[C@@H](CNCc3ccc(O)cc3Cl)CC2)n1 [compound 1267],3 (Class 3 The value of percent of control at 10^−7 M was more than 60% or the value of IC50 was more than 200 nM.)
8,"Cc1cccc(C(=O)N[C@H]2CC[C@@H](Nc3nccc(N(C)C)n3)CC2)c1 [compound 268, N-(cis-4-{[4-(dimethylamino)pyrimidin-2-yl]amino}cyclohexyl)-3-methylbenzamide]",2 (Class 2: The value of percent of control at 10^−7 M was from 40% to 60% or the value of IC′50 was from 50 nM to 200 nM.)
9,CCOC(=O)c1[nH]c2cc(Cl)cc(Cl)c2c1CN[C@H]1CC[C@@H](Nc2nc3c(c(N(C)C)n2)CCCC3)CC1 [compound 1357],1 (Class 1: The value of percent of control at 10^−7 M was less than 40% or the value of IC50 was less than 50 nM.)
10,CN(C)c1cc(N[C@H]2CC[C@@H](CNC(=O)c3ccc(Cl)s3)CC2)nc2ccccc12 [compound 792],3 (Class 3 The value of percent of control at 10^−7 M was more than 60% or the value of IC50 was more than 200 nM.)
11,"COc1cc(NC(=O)N[C@H]2CC[C@@H](Nc3cc(N(C)C)c4ccccc4n3)CC2)cc(OC)c1OC [compound 2149, N-(cis-4-{[4-(dimethylamino)quinolin-2-yl]amino}cyclohexyl)-N′-(3,4,5-trimethoxyphenyl)urea]",1 (Class 1: The value of percent of control at 10^−7 M was less than 40% or the value of IC50 was less than 50 nM.)
12,CN(C)c1ccnc(N[C@H]2CC[C@@H](NC(=O)C3C[C@H]3c3ccccc3)CC2)n1 (stereo partly drawn) [compound 264],3 (Class 3 The value of percent of control at 10^−7 M was more than 60% or the value of IC50 was more than 200 nM.)
13,COc1ccc([N+](=O)[O-])cc1NC(=O)N[C@H]1CC[C@@H](Nc2nc3c(c(N(C)C)n2)CCCC3)CC1 [compound 1862],3 (Class 3 The value of percent of control at 10^−7 M was more than 60% or the value of IC50 was more than 200 nM.)
14,CN(C)c1cc(N[C@H]2CC[C@@H](NC(=O)CC(c3ccccc3)c3ccccc3)CC2)nc2ccccc12 [compound 756],3 (Class 3 The value of percent of control at 10^−7 M was more than 60% or the value of IC50 was more than 200 nM.)
15,CN(C)c1ccnc(N[C@H]2CC[C@@H](NC(=O)/C=C/c3cccc([N+](=O)[O-])c3)CC2)n1 [compound 822],3 (Class 3 The value of percent of control at 10^−7 M was more than 60% or the value of IC50 was more than 200 nM.)
16,CN(C)c1nc(N[C@H]2CC[C@@H](CNC(=O)c3ccc(I)cc3)CC2)nc2c1CCCC2 [compound 603],3 (Class 3 The value of percent of control at 10^−7 M was more than 60% or the value of IC50 was more than 200 nM.)

# Same assay, conditions: class by percent of control at 10^−7 M or IC50
row,SMILES,class
1,Cc1cc(N(C)C)nc(N[C@H]2CC[C@@H](NCc3cccc(OC(F)(F)F)c3)CC2)n1 [compound 3005],3 (Class 3 The value of percent of control at 10^−7 M was more than 60% or the value of IC50 was more than 200 nM.)
2,Cc1nc(N[C@H]2CC[C@@H](NCc3ccc(F)c(F)c3)CC2)nc(N(C)C)c1C [compound 2866],2 (Class 2: The value of percent of control at 10^−7 M was from 40% to 60% or the value of IC′50 was from 50 nM to 200 nM.)
